17 molecules from ChEMBL document CHEMBL1909046, “DrugMatrix in vitro pharmacology data” can be followed below.

The target in data set [1] is T1, Alpha-1B adrenergic receptor (Rattus norvegicus, UniProt P15823).
T1 sequence (P15823 whole entry): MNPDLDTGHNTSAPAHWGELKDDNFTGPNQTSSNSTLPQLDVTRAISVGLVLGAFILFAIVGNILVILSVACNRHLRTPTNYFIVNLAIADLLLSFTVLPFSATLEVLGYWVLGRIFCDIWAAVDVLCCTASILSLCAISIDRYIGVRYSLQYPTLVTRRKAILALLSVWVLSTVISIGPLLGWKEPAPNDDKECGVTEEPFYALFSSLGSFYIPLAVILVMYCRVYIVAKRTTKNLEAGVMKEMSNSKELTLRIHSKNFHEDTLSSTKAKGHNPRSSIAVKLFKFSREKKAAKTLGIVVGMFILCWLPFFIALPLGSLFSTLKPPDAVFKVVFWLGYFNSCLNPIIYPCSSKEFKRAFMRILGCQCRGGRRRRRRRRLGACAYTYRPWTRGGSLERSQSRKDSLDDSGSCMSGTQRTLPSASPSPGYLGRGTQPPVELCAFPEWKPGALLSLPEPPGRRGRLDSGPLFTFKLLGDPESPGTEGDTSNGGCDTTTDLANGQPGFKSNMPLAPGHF
The experiment in a line: DRUGMATRIX: Alpha-1B adrenergic receptor radioligand binding (ligand: prazosin). The data set is classed as cell membranes, Wistar, Liver, Membrane. Conditions: Not Active = under 50% inhibition at 10 µM.

A short description of data set [2]: DRUGMATRIX: GABAA, Muscimol, Central radioligand binding (ligand: [3H] Muscimol). The conditions noted are these: Not Active = under 50% inhibition at 10 µM. The data set is classed as cell membranes, Rattus norvegicus, Wistar, Brain, Membrane.
The target of data set [3] is T2, Neuropeptide Y receptor type 2 (Homo sapiens, UniProt P49146). Note: in other assays of this panel Not Active means under 50% inhibition at 10 µM.
T2 sequence (P49146 whole entry): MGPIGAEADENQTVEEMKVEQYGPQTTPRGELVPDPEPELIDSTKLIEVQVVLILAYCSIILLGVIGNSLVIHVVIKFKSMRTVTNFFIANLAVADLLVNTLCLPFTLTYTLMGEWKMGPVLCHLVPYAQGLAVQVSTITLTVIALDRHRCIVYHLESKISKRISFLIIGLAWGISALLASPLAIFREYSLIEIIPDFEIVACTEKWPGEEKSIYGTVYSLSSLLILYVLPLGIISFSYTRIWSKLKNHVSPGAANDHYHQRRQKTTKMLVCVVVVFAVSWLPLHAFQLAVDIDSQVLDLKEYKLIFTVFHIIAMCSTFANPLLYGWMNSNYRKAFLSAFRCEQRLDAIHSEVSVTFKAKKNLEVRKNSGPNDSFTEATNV
The data set is classed as cell membranes, Membrane. Conditions: kan-ts.

For the next data set, the target named is Adenosine receptor A2a (Homo sapiens, UniProt P29274). Briefly: DRUGMATRIX: Adenosine A2A radioligand binding (ligand: […]). It counts as cell membranes, HEK293, Membrane. The conditions noted are these: hek293; Not Active = under 50% inhibition at 10 µM.
Sequence of Adenosine receptor A2a (P29274 whole entry): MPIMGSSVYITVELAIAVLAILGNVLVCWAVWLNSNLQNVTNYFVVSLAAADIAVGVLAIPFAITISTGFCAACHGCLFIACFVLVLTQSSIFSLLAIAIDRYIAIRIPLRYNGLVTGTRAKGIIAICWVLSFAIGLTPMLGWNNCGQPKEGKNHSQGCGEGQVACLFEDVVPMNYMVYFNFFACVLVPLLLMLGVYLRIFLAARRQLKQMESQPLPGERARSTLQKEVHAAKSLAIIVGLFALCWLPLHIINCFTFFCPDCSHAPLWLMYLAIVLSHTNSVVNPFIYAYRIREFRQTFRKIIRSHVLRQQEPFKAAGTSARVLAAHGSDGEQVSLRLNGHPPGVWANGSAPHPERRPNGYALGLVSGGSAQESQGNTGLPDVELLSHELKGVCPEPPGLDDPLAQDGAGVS
The next data set has as its target Cytochrome P450 2C19 (Homo sapiens, UniProt P33261). Conditions: bti-tn-5b1-4. Note: in other assays of this panel Not Active means under 50% inhibition at 10 µM.
The target of data set [4] is Matrix metalloproteinase-9 (Homo sapiens, UniProt P14780). It counts as cell-based.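 Note: inhibition of isolated MMP-9 enzyme activity toward a synthetic peptide substrate, from the DrugMatrix protease screening panel; in other assays of this panel Not Active means under 50% inhibition at 10 µM.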
Sequence of Matrix metalloproteinase-9 (P14780 whole entry): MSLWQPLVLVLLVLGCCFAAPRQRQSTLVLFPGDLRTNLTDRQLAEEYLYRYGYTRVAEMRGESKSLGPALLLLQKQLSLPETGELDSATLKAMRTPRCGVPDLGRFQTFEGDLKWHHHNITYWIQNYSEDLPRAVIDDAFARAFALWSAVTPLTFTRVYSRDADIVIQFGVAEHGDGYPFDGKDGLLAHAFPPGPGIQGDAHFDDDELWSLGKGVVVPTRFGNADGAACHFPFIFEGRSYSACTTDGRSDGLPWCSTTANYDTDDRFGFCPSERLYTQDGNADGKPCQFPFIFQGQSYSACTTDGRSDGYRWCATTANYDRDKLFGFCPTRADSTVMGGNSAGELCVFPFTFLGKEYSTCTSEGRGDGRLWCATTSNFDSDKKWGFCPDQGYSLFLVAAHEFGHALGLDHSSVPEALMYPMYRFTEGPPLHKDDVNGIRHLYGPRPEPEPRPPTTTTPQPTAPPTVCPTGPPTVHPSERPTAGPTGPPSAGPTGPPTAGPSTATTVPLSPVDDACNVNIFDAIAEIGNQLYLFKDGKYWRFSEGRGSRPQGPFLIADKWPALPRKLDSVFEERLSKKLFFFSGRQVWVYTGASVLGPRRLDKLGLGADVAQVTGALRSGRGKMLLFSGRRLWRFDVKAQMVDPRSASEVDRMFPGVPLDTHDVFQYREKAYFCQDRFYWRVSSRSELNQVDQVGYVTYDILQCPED
The target of data set [5] is T3, C-C chemokine receptor type 4 (Homo sapiens, UniProt P51679). Note: in other assays of this panel Not Active means under 50% inhibition at 10 µM.
T3 sequence (P51679 whole entry): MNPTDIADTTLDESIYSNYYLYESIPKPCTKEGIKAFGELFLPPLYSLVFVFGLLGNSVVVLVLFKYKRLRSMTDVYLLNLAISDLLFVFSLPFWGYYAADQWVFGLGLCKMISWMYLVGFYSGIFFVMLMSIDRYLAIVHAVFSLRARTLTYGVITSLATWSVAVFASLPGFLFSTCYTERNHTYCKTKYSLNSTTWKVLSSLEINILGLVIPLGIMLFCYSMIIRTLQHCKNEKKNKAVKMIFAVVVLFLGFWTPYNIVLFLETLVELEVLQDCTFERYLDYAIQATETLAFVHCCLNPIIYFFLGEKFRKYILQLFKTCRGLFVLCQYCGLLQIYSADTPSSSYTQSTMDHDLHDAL
The data set is classed as cell membranes, Membrane. The conditions noted are these: chem-1.

pIC50, pKi: −log10 of the molar value.

Sequence of Cytochrome P450 2C19 (P33261 whole entry): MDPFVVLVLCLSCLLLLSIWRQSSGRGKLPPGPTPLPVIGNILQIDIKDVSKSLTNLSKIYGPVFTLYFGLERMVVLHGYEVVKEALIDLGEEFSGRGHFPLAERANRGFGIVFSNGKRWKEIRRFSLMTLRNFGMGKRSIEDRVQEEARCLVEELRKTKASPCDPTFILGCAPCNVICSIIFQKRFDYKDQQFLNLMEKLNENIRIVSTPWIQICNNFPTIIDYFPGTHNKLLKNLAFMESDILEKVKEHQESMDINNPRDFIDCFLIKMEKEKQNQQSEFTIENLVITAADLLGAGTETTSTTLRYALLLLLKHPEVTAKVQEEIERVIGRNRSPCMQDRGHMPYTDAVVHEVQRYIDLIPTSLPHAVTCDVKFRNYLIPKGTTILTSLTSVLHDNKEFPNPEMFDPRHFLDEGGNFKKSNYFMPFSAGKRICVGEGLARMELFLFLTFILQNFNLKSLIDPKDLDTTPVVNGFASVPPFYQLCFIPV

With `C[C@H]1O[C@H](O[C@H]2[C@H](O)[C@@H](O)[C@@H](O[C@H]3[C@H](O)[C@@H](O)C(O)O[C@@H]3CO)O[C@@H]2CO)[C@H](O)[C@@H](O)[C@@H]1N[C@H]1C=C(CO)[C@@H](O)[C@H](O)[C@H]1O` (some centres undefined) [ACARBOSE], the IC50 result (in data set [1]; in data set [2]; in data set [3]; at Adenosine receptor A2a; at Cytochrome P450 2C19; in data set [4]) was “Not Active” each time. The IC50 entry in data set [5] is reported as “Not Active”. Further, the Ki result (in data set [2]; at Cytochrome P450 2C19) was “Not Active” each time.

Take `CC[C@H]1[C@@H]2C[C@H]3[C@@H]4N(C)c5ccccc5[C@]45C[C@@H]([C@@H]2[C@H]5O)N3[C@@H]1O` [AJMALINE]: the IC50 result (in data set [1]; in data set [2]; in data set [3]; on Adenosine receptor A2a; at Cytochrome P450 2C19; in data set [4]) was “Not Active” each time. In addition, the IC50 result in data set [5] is listed as “Not Active”. The Ki result (in data set [2]; on Cytochrome P450 2C19) was “Not Active” throughout.

Take `NCCCNCCSP(=O)(O)O` [AMIFOSTINE]: the IC50 entry (in data set [1]; in data set [2]; in data set [3]; at Adenosine receptor A2a; on Cytochrome P450 2C19; in data set [4]) was “Not Active” in each case. Further, in data set [5], the IC50 result is recorded as “Not Active”. The Ki result (in data set [2]; at Cytochrome P450 2C19) was “Not Active” in each case.

With `CN(C)CCC=C1c2ccccc2CCc2ccccc21` [AMITRIPTYLINE], the pIC50 in data set [1] (read-out: IC50) was 7.12. Besides, in data set [1] (read-out: Ki), the negative logarithm of the Ki (pKi) is 7.38. Moreover, the IC50 result (in data set [2]; in data set [3]; at Adenosine receptor A2a; against Cytochrome P450 2C19; in data set [4]; in data set [5]) was “Not Active” each time. Also, the Ki result (in data set [2]; at Cytochrome P450 2C19) was “Not Active” in each case.

Take `CC(=O)Oc1ccccc1C(=O)O` [ASPIRIN]: the IC50 result (in data set [1]; in data set [2]; in data set [3]; at Adenosine receptor A2a; against Cytochrome P450 2C19; in data set [4]) was “Not Active” throughout. For the same molecule, the IC50 result in data set [5] is “Not Active”. Besides, the Ki entry (in data set [2]; at Cytochrome P450 2C19) was “Not Active” each time.

In the case of `CC(=O)OC[C@H]1O[C@@H](n2ncc(=O)[nH]c2=O)[C@H](OC(C)=O)[C@@H]1OC(C)=O` [AZARIBINE], the IC50 result (in data set [1]; in data set [2]; in data set [3]; at Adenosine receptor A2a; on Cytochrome P450 2C19; in data set [4]) was “Not Active” in each case. In addition, the IC50 result in data set [5] is reported as “Not Active”. Further, the Ki result (in data set [2]; at Cytochrome P450 2C19) was “Not Active” in each case.

Turning to `C[C@H]1[C@H](NC(=O)/C(=N\OC(C)(C)C(=O)O)c2csc(N)n2)C(=O)N1S(=O)(=O)O` [AZTREONAM], the IC50 entry (in data set [1]; in data set [2]; in data set [3]; at Adenosine receptor A2a; against Cytochrome P450 2C19; in data set [4]) was “Not Active” throughout. Besides, in data set [5], the IC50 result is recorded as “Not Active”. In addition, the Ki entry (in data set [2]; on Cytochrome P450 2C19) was “Not Active” in each case.

For the molecule `O=C(O)CCNC(=O)c1ccc(/N=N/c2ccc(O)c(C(=O)O)c2)cc1` [BALSALAZIDE], the IC50 entry (in data set [1]; in data set [2]; in data set [3]; on Adenosine receptor A2a; at Cytochrome P450 2C19; in data set [4]) was “Not Active” each time. Besides, the IC50 result in data set [5] is recorded as “Not Active”. Further, the Ki entry (in data set [2]; at Cytochrome P450 2C19) was “Not Active” throughout.

Regarding `COc1cc(OC)c(C(=O)CCCN2CCCC2)c(OC)c1` [BUFLOMEDIL], the IC50 entry (in data set [1]; in data set [2]; in data set [3]; at Adenosine receptor A2a; against Cytochrome P450 2C19; in data set [4]) was “Not Active” throughout. The IC50 entry in data set [5] is recorded as “Not Active”. Also, the Ki result (in data set [2]; on Cytochrome P450 2C19) was “Not Active” throughout.

With `ClC(Cl)(Cl)Cl` [CARBON TETRACHLORIDE], the IC50 entry (in data set [1]; in data set [2]; in data set [3]; at Adenosine receptor A2a; on Cytochrome P450 2C19; in data set [4]) was “Not Active” throughout. In addition, the IC50 result in data set [5] was “Not Active”. Moreover, the Ki entry (in data set [2]; on Cytochrome P450 2C19) was “Not Active” throughout.

In the case of `CO/N=C(\C(=O)N[C@@H]1C(=O)N2C(C(=O)O)=C(COC(C)=O)CS[C@H]12)c1csc(N)n1` [CEFOTAXIME], the IC50 result (in data set [1]; in data set [2]; in data set [3]; at Adenosine receptor A2a; at Cytochrome P450 2C19; in data set [4]) was “Not Active” each time. Besides, in data set [5], the IC50 entry is listed as “Not Active”. Also, the Ki entry (in data set [2]; at Cytochrome P450 2C19) was “Not Active” in each case.

With `CNC1=Nc2ccc(Cl)cc2C(c2ccccc2)=[N+]([O-])C1` [CHLORDIAZEPOXIDE], the IC50 result (in data set [1]; in data set [2]; in data set [3]; on Adenosine receptor A2a; against Cytochrome P450 2C19; in data set [4]) was “Not Active” throughout. Further, the IC50 result in data set [5] is on record as “Not Active”. The Ki result (in data set [2]; on Cytochrome P450 2C19) was “Not Active” throughout.

`Cc1cc(O)cc(C)c1Cl` [CHLOROXYLENOL]: the IC50 result (in data set [1]; in data set [2]; in data set [3]; at Adenosine receptor A2a; at Cytochrome P450 2C19; in data set [4]) was “Not Active” in each case. For the same molecule, the IC50 result in data set [5] is given as “Not Active”. Besides, the Ki entry (in data set [2]; at Cytochrome P450 2C19) was “Not Active” in each case.

With `CCCNC(=O)NS(=O)(=O)c1ccc(Cl)cc1` [CHLORPROPAMIDE], the IC50 entry (in data set [1]; in data set [2]; in data set [3]; on Adenosine receptor A2a; against Cytochrome P450 2C19; in data set [4]) was “Not Active” each time. Moreover, in data set [5], the IC50 entry was “Not Active”. Also, the Ki result (in data set [2]; at Cytochrome P450 2C19) was “Not Active” each time.

In the case of `NS(=O)(=O)c1cc(C2(O)NC(=O)c3ccccc32)ccc1Cl` (centres undefined) [CHLORTHALIDONE], the IC50 entry (in data set [1]; in data set [2]; in data set [3]; on Adenosine receptor A2a; against Cytochrome P450 2C19; in data set [4]) was “Not Active” throughout. Besides, in data set [5], the IC50 entry was “Not Active”. Besides, the Ki result (in data set [2]; on Cytochrome P450 2C19) was “Not Active” each time.

In the case of `O=C(O)CC(O)(CC(=O)O)C(=O)O` [CITRIC ACID], the IC50 result (in data set [1]; in data set [2]; in data set [3]; at Adenosine receptor A2a; on Cytochrome P450 2C19; in data set [4]) was “Not Active” each time. For the same molecule, in data set [5], the IC50 result was “Not Active”. Besides, the Ki entry (in data set [2]; at Cytochrome P450 2C19) was “Not Active” in each case.

In the case of `CC(C)NCC(O)c1ccccc1Cl` (centres undefined) [CLORPRENALINE], the IC50 result (in data set [1]; in data set [2]; in data set [3]; on Adenosine receptor A2a; against Cytochrome P450 2C19; in data set [4]) was “Not Active” in each case. Also, in data set [5], the IC50 result was “Not Active”. Also, the Ki result (in data set [2]; at Cytochrome P450 2C19) was “Not Active” each time.
